Assay results as given in paper PMC12150632, “Chalcones inhibit firefly bioluminescence dependent on A and B-ring substitution pattern – a structure-activity study combined with molecular docking” (Journal of Enzyme Inhibition and Medicinal Chemistry, 2025).

Molecular target: T1, firefly luciferase (FLuc) (Photinus pyralis, UniProt P08659)
T1 construct: purchased Sigma-Aldrich; host or cells: E. coli
Test: Inhibition assay of luciferase (purified recombinant enzyme, bioluminescence readout)
Format: biochemical
Conditions: n = 3; for IC50: sigmoidal fit, concentration series 100 µM to 13 nM and 300 µM to 0.41 nM; for Inhibition (%) of FLuc: compound concentration 10 µM; for Inhibition (%) of FLuc / inhibition at 10 µM: relative to DMSO vehicle control; for inhibition at 10 µM: read-out: Inhibition (%) of FLuc, compound concentration 10 µM
Experimental: 25 µL of luciferase protein (c = 0.6 µg/mL, Sigma-Aldrich, recombinant expressed in E.coli) in Trisbuffer (10 mM Tris, 10 mM KCl, 1 mM EGTA, 30% glycerol) pH7.4 were added to each well of a white 96 well plate (Brand). The compounds were added in 1 µL DMSO at various concentrations. After incubation of the enzyme with the compounds for 10 min at room temperature, 80 µL of FLuc buffer (25 mM glycylglycin, 4 mM EGTA, 15 mM MgSO4, 15 mM PPB) was added and the light signal was immediately measured using a multiplate reader (Clariostar, BMG) with a gain of 2500 and a measurement interval time of 2 s. Inhibition was calculated in relation to the control, enzyme treated with vehicle (DMSO).
OriginPro 2021b (64-bit) SR2 (9.8.5.212) (OriginLab) was used to determine the inhibition and IC50 values and prepare the figures. The IC50 values were calculated from the sigmoidal fit of the log scale concentration without fixing the parameters.
The inhibitory activity of all chalcones was evaluated at a concentration of 10 µM on purified recombinant firefly luciferase, as this concentration would also be used in the reporter gene assay to determine neurogenic activity.
To obtain the IC50 values and construct a concentration-response curve, chalcones were measured in the assay using a series of decreasing concentrations, ranging from 100 µM to 13 nM and from 300 µM to 0.41 nM.

T1 sequence (P08659 whole entry): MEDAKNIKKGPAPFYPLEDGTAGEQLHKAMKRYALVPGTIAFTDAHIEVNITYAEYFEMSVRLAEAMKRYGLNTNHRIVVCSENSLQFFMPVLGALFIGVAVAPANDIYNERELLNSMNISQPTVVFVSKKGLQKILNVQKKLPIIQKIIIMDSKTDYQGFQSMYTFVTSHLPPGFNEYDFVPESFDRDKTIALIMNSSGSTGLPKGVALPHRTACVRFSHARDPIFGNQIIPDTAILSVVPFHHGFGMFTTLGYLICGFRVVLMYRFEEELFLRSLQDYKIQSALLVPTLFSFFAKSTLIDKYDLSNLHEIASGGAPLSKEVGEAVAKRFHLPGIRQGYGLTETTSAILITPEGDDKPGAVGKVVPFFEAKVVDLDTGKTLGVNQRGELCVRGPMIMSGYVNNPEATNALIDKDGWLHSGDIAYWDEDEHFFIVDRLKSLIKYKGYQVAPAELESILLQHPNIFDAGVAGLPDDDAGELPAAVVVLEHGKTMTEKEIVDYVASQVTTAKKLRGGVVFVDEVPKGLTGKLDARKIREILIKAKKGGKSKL

Compound	inhibition at 10 µM	Inhibition (%) of FLuc	also measured
O=C(O)c1cccc(-c2noc(-c3ccccc3F)n2)c1 [Ataluren, reference compound]			IC50: 0.11 µM
CC1(C)C=Cc2cc(C(=O)/C=C/c3ccc(O)cc3)ccc2O1 [Compound 2, (E)-1–(2,2dimethyl-2H-chromen-6-yl)-3–(4-hydroxyphenyl)prop-2-en-1-one]	30%		Inhibition (%) of FLuc (10 µM): 32%
COc1cc2c(cc1C(=O)/C=C/c1ccc(O)cc1)C=CC(C)(C)O2 [Compound 3, (E)-3–(4-hydroxyphenyl)-1–(7-methoxy-2,2-dimethyl-2H-chromen-6-yl)prop-2-en-1-one]	< 5%		
CC1(C)C=Cc2c(ccc(C(=O)/C=C/c3ccc(O)cc3)c2O)O1 [Compound 4, (E)-1–(5-hydroxy-2,2-dimethyl-2H-chromen-6-yl)-3–(4-hydroxyphenyl)prop-2-en-1-one]	< 10%		
CC1(C)C=Cc2cc(C(=O)/C=C/c3ccc(O)cc3)c(O)cc2O1 [Compound 5, (E)-1–(7-hydroxy-2,2-dimethyl-2H-chromen-6-yl)-3–(4-hydroxyphenyl)prop-2-en-1-one]	< 5%		
CC1(C)C=Cc2cc(C(=O)/C=C/c3ccc(O)cc3)ccc2N1 [Compound 6, (E)-1–(2,2-dimethyl-1,2-dihydroquinolin-6-yl)-3–(4-hydroxyphenyl)prop-2-en-1-one]	18%		
CC1(C)C=Cc2cc(C(=O)/C=C/c3ccc(N)cc3)ccc2O1 [Compound 8, (E)-3–(4-aminophenyl)-1–(2,2-dimethyl-2H-chromen-6-yl)prop-2-en-1-one]		comparable to that of the hydroxyl group	
CC1(C)C=Cc2cc(C(=O)/C=C/c3ccc(Cl)cc3)ccc2O1 [Compound 12, (E)-3–(4-chlorphenyl)-1–(2,2-dimethyl-2H-chromen-6-yl)prop-2-en-1-one]		near-complete elimination of the inhibitory effect	
CC1(C)C=Cc2cc(C(=O)/C=C/c3ccc(C(F)(F)F)cc3)ccc2O1 [Compound 13, (E)-1–(2,2-dihmethyl-2H-chromen-6-yl)-3–(4-(trifluoromethyl)phenyl)prop-2-en-1-one]		near-complete elimination of the inhibitory effect	
CC1(C)C=Cc2cc(C(=O)/C=C/c3ccccc3)ccc2O1 [Compound 14, (E)-1–(2,2-dimethyl-2H-chromen-6-yl)-3-phenylprop-2-en-1-one]		most pronounced inhibitory effect	IC50: < 10 µM
CC1(C)C=Cc2cc(C(=O)/C=C/c3cccc(O)c3O)ccc2O1 [Compound 18, (E)-3–(2,3-dihydroxyphenyl)-1–(2,2-dimethyl-2H-chromen-6-yl)prop-2-en-1-one]			IC50: < 10 µM
(E)-1–(2,2-dimethyl-2H-thiochromen-6-yl)-3–(4-methoxyphenyl)prop-2-en-1-one [Compound 7]		less than 10%	
(E)-1–(7-hydroxy-5-methoxy-2,2-dimethyl-2H-chromen-6-yl)-3–(4-hydroxyphenyl)prop-2-en-1-one [Compound 1]			Inhibition (%) of FLuc (10 µM): no inhibition; Inhibition (%) of FLuc (listed as xanthohumol C, 10 µM): no inhibitory effect
